Data taken from patent US20110281807A1, “PLANT DISEASE CONTROL AGENT COMPRISING D-TAGATOSE AS ACTIVE INGREDIENT, AND PLANT DISEASE CONTROL METHOD” (NATIONAL UNIVERSITY CORPORATION KAGAWA UNIVERSITY, priority 2008, published 2011).
Read-outs that look alike come from different tables or passages of the source.

Assays:
Peronospora parasitica = assay: cabbage downy mildew, pot test: preventive effect; conditions: for Preventive value: inoculated 3 days after spraying
Procedure: Test plants (cabbage, variety: Shikidori) were seeded and grown until 4 leaves stage. […] Three days after spraying, a suspension containing condia of cucumber downy mildew (Peronospora parasitica) was inoculated by spraying on test plants. Seven days after inoculation the disease severity of the test plants was observed and the effectiveness of test sample was judged. Tests were carried out using two plants for each test set and the disease severity of test plants was judged in accordance with the following criteria. The preventive value was calculated from the degree of disease severity as in Example 1.

[1] = test system: Pseudoperonospora cubensis; conditions: for Preventive value: 5 ml soil drench, inoculated 5 days after drenching
Procedure: Test plants (cucumber, variety: Sagami hanpaku) were seeded and grown until the one true leaf stage. D-Tagatose was diluted to 5% and 1% with distilled water and then 5 ml of the dilution was drenched into the soil of the pot. Five days after drenching, a sporangium suspension of Pseudoperonospora cubensis containing 1×10^3/ml were noculated by spraying on the test plants and then put them for 16 hours in an inoculation chamber (20° C. to 23° C.) to promote disease. Seven days after inoculation the disease severity of the test plants was observed and the effectiveness of test sample was judged. Tests were carried out using two plants for each test set and the disease severity of the test plants was judged. The preventive value was calculated from the degree of disease severity as in Example 1.

[2] = test system: Pseudoperonospora cubensis; assay: cucumber downy mildew, pot test: curative effect
Procedure: Test plants (cucumber, variety: Sagami hanpaku) were seeded and grown until the one true leaf stage. And then a sporangium suspension of Pseudoperonospora cubensis containing 1×10^3/ml were sprayed on the back side of the leaves of test plants for inoculation and then the plants were put for 16 hours in an inoculation chamber (20° C. to 23° C.) to promote disease. For a curative test, the inoculated plants as described above were used.
D-Tagatose was diluted to 5%, 1% and 0.5% with distilled water and then 10 ml of the dilution was sprayed on the test plant. Seven days after the spraying of D-tagatose the disease severity of the test plants was observed and the effectiveness of test sample was judged. Tests were carried out using two plants for each test set and the disease severity of the test plants was judged. The control value was calculated from the degree of disease severity as in Example 1.

Pythium aphanidermatum = conditions: for Preventive value: 10 ml soil drench, from germination rate after 2 weeks
Procedure: Five seeds of test plants (cucumber, variety: Sagami hanpaku) were sowed in a pot (5×5 cm), which contains infested soil with Pythium aphanidermatum (mycelium 100 g/1 L soil) and the seeds were covered with the soil. […] After 2 weeks, the disease severity of the test plants was observed and the effectiveness of test sample was judged. Tests were carried out in triplicate using 5 plants for each test set and the preventive value was calculated from the germination rate.

Puccinia recondita = conditions: Puccinia recondita, in Triticum aestivum, 168 h, read-out: Preventive value
Procedure: Test plants (variety: Nourin 61 gou) were sowed and grown until two leaves stage.
D-Tagatose and fungicide were diluted to 10000 ppm and the concentration listed in table 19, respectively, with distilled water, and 10 ml of the dilution was sprayed thoroughly on the plants. Three days after the spraying of the dilution, the plants were inoculated with Puccinia recondita containing 1×10^3/ml and then put for 16 hours in an inoculation chamber (20° C. to 23° C.) to promote disease. Seven days after inoculation the disease severity of the test plants was observed and the effectiveness of test sample was judged.

SMILES: O=C(CO)[C@@H](O)[C@@H](O)[C@H](O)CO [D-Tagatose, D-tagatose]
- Preventive value (Peronospora parasitica; 10000 ppm spray): 90.1
- Preventive value (Peronospora parasitica; 50000 ppm spray): 95.1
- effectiveness in words (Peronospora parasitica; foliar spray): effective enough
- Preventive value ([1]; 10000 ppm): 95.0
- Preventive value ([1]; 10000 ppm, listed as D-tagatose): 95
- Preventive value ([1]; 50000 ppm): 100.0
- Preventive value ([1]; 50000 ppm, listed as D-tagatose): 100
- effectiveness in words ([1]; drench treatment): effective enough
- Preventive value (control value) ([2]; 5000 ppm sprayed after inoculation (curative)): 22.5
- Preventive value (control value) ([2]; 10000 ppm sprayed after inoculation (curative)): 91.7
- Preventive value (control value) ([2]; 50000 ppm sprayed after inoculation (curative)): 100.0
- Preventive value (control value) ([2]; 50000 ppm sprayed after inoculation (curative), listed as D-tagatose): 100
- effectiveness in words ([2]; curative test condition): effective enough
- Preventive value (Pythium aphanidermatum; 10000 ppm): 70.0
- Preventive value (Pythium aphanidermatum; 50000 ppm): 92.5
- effectiveness in words (Pythium aphanidermatum; soil drench): effective enough
- pest or weed control at 10000 ppm (Puccinia recondita): 17%
- pest or weed control at 50000 ppm (Puccinia recondita): 50%
